Reference: patent US12698523B2, “Enhancement of nucleic acid polymerization by aromatic compounds” (priority 2019, dated 2026)

Tests used:
[1] = target: T1, C4760 DNA polymerase (a variant of DPO4, SEQ ID NO:2) (Saccharolobus solfataricus, UniProt Q97W02, A155G/A42V/D156R/D292Y/D294N/E291S/E324K/E325K/E327K/E63R/E79L/G187P/G299W/I153V/I189F/I248T/I295S/K152A/K317Q/K321Q/K56Y/K78D/L293W/M76W/N188Y/P184Q/Q82W/Q83G/R300S/S297Y/S86E/T290K/T301W/V289W/V296Q); assay: Primer extension on a 45mer RNA template derived from the HIV2 genome sequence; assay type: biochemical, Sulfolobus solfataricus; conditions: 2 Mm PEM; 45mer RNA template from HIV2 genome; 30 minutes at 37° C.
T1 construct: made in house
Protocol: To begin to investigate the potential of PEMs to enhance diverse polymerase reactions, the ability of PEMS to enable DNA polymerase to utilize RNA as a template was tested. An initial screen of several compounds set forth in Table I was conducted using a 45mer RNA template derived from the HIV2 genome sequence. Primer extension reactions included the following reagents: 50 Mm TrisCl, 200 Mm NH4Oac, 20% PEG8K, 5% NMS, 0.6 nmol PP-60.20, 0.6 Mm MnCl2, 2 μg Kod single-strand binding protein (SSB), 1 M urea, 50 pmol each XNTP, 0.5 pmol template, 0.5 pmol oligonucleotide primer, 1.2 μg purified recombinant C4760 DNA polymerase (a variant of DPO4, see SEQ ID NO:2), and 2 Mm PEM. 10 μL primer extension reactions were run for 30 minutes at 37° C. and reaction products were analyzed by gel electrophoresis.

[2] = target: T1, C4760 DNA polymerase (a variant of DPO4, SEQ ID NO:2); assay: Primer extension assay with the HIV2 100mer template; assay type: biochemical, Sulfolobus solfataricus; conditions: for polymerization of XNTPs into full length Xpandomer copies (PEM activity): HIV2 100mer template, Eco SSB, 30 minutes at 23° C.
Protocol: PEM activity of compound 12 was tested in primer extension assays using the HIV2 100mer template. Primer extension reactions included the following reagents: 50 Mm TrisCl, 200 Mm NH4Oac, 20% PEG8K, 5% NMS, 0.6 nmol PP-60.20, 0.6 Mm MnCl2, 2.75 μg/μl Eco single-strand binding protein (SSB), 1 M urea, 50 pmol each XNTP, 1.1 pmol template, 1 pmol oligonucleotide primer, 1.2 μg/μl purified recombinant C4760 DNA polymerase (SEQ ID NO:2), and 0.5, 1, or 1.5 Mm PEM. 10 μL primer extension reactions were run for 30 minutes at 23° C. and reaction products were analyzed by gel electrophoresis. […] Lanes 2-4 show primer extension products from reactions with a structurally related additive lacking robust PEM activity.
PEM activity of compounds 13 and 14 was tested in primer extension assays using the HIV2 100mer template. Primer extension reactions included the following reagents: 50 Mm TrisCl, 200 Mm NH4Oac, 20% PEG8K, 5% NMS, 0.6 nmol PP-60.20, 0.6 Mm MnCl2, 2.75 μg/μl Eco single-strand binding protein (SSB), 1 M urea, 50 pmol each XNTP, 1.1 pmol template, 1 pmol oligonucleotide primer, 1.2 μg/μl purified recombinant C4760 DNA polymerase (a variant of DPO4, see SEQ ID NO:2), and 0.5, 1, 1.52, or 2.5 Mm PEM. 10 μL primer extension reactions were run for 30 minutes at 23° C. and reaction products were analyzed by gel electrophoresis. A representative gel showing primer extension products is presented in FIG. 11 (the position of the full length HIV2 100mer is indicated by the arrow).
PEM activity of compounds 16, 17, and 18 and combinations thereof were tested in primer extension assays using the HIV2-derived 100mer template. Primer extension reactions included the following reagents: 50 Mm TrisCl, 200 Mm NH4Oac, 20% or 25% PEG8K, 5% NMS, 0.6 nmol PP-60.20, 0.6 Mm MnCl2, 2 μg Kod single-strand binding protein (SSB), 1 M urea, 50 pmol each XNTP, 1 pmol template, 1 pmol oligonucleotide primer, 1.2 μg purified recombinant C4760 DNA polymerase (a variant of DPO4, see SEQ ID NO:2), and 0.5-2 Mm PEM. 10 μL primer extension reactions were run for 30 minutes at 37° C. and reaction products were analyzed by gel electrophoresis. A representative gel showing primer extension products is presented in FIG. 13 (the position of a 100mer product is indicated by the arrow).

[3] = 0.5, 1, 1.52, or 2.5 Mm PEM, FIG. 11

T1 sequence (Q97W02 other isoform, or with tags, fused parts or gaps with the stated changes): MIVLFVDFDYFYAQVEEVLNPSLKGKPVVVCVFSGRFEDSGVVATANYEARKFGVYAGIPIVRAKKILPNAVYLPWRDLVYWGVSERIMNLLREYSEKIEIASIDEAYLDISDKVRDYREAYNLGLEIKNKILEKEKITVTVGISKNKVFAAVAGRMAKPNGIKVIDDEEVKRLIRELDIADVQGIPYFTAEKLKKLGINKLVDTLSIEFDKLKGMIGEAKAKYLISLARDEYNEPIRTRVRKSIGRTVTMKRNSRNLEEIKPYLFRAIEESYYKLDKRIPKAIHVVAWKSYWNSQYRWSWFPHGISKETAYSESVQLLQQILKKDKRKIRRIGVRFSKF

| Structure (SMILES) | PEM activity on an RNA template [1] | further results |
| --- | --- | --- |
| O=C(NCCO)c1cc(-c2cn(-c3ccc(C(=O)O)c(C(F)(F)F)c3)nn2)nc(-c2cn(-c3ccc(C(=O)O)c(C(F)(F)F)c3)nn2)c1 [Compound 105, 4,4′-((4-((2-hydroxyethyl)carbamoyl)pyridine-2,6-diyl)bis(1H-1,2,3-triazole-4,1-diyl))bis(2-(trifluoromethyl)benzoic acid)] | display PEM activity on an RNA template | – |
| N#Cc1cc(-c2cn(-c3ccc(O)c(C(=O)O)c3)nn2)nc(-c2cn(-c3ccc(O)c(C(=O)O)c3)nn2)c1 [Compound 12, 5,5′-((4-cyanopyridine-2,6-diyl)bis(1H-1,2,3-triazole-4,1-diyl))bis(2-hydroxybenzoic acid)] | – | polymerization of XNTPs into full length Xpandomer copies (PEM activity) ([2]; 0.5, 1, or 1.5 Mm PEM, FIG. 10): enables polymerization of XNTPs into full length Xpandomer copies of the 100mer template |
| O=C(O)c1ccc(-n2cc(-c3ccc(-c4cn(-c5ccc(C(=O)O)c(C(F)(F)F)c5)nn4)o3)nn2)cc1C(F)(F)F [Compound 118, 4,4′-(furan-2,5-diylbis(1H-1,2,3-triazole-4,1-diyl))bis(2-(trifluoromethyl)benzoic acid)] | display PEM activity on an RNA template | – |
| COC(=O)c1cc(-c2cn(-c3ccc(C(=O)O)c(O)c3)nn2)nc(-c2cn(-c3ccc(C(=O)O)c(O)c3)nn2)c1 [Compound 16, 4,4′-((4-(methoxycarbonyl)pyridine-2,6-diyl)bis(1H-1,2,3-triazole-4,1-diyl))bis(2-hydroxybenzoic acid)] | – | polymerization of XNTPs into lengthy Xpandomer copies (PEM activity) ([2]; 2 Mm compound 16, 0.5, 1, 2, and 3 Mm compound 17, HIV2-derived 100mer template, Kod SSB, 30 minutes at 37° C., FIG. 13): enable polymerization of XNTPs into lengthy Xpandomer copies of the 100mer template in a manner comparable to that of compound 14; polymerization of XNTPs into full length copies, combination of PEMs ([2]; combination of 2 Mm compound 16 and 0.1 Mm or 0.3 Mm compound 18, HIV2-derived 100mer template, FIG. 13 lanes 10-12): enable polymerization of XNTPS into full length copies of the 100mer template |
| Cc1cc(-c2cn(-c3ccc(C(=O)O)c(O)c3)nn2)nc(-c2cn(-c3ccc(C(=O)O)c(O)c3)nn2)c1 [Compound 13, 4,4′-((4-methylpyridine-2,6-diyl)bis(1H-1,2,3-triazole-4,1-diyl))bis(2-hydroxybenzoic acid)] | – | polymerization of XNTPs into full length Xpandomer copies (PEM activity) [2, 3]: enables polymerization of XNTPs into full length Xpandomer copies of the 100mer template in a manner comparable to that of compound 10 |
| CCNC(=O)c1cc(-c2cn(-c3ccc(C(F)(F)F)c(C(=O)O)c3)nn2)nc(-c2cn(-c3ccc(C(F)(F)F)c(C(=O)O)c3)nn2)c1 [Compound 75, 5,5′-((4-(ethylcarbamoyl)pyridine-2,6-diyl)bis(1H-1,2,3-triazole-4,1-diyl))bis(2-(trifluoromethyl)benzoic acid)] | display PEM activity on an RNA template | – |
| CCOC(=O)c1cc(-c2cn(-c3ccc(C(=O)O)c(O)c3)nn2)nc(-c2cn(-c3ccc(C(=O)O)c(O)c3)nn2)c1 [Compound 14, 4,4′-((4-(ethoxycarbonyl)pyridine-2,6-diyl)bis(1H-1,2,3-triazole-4,1-diyl))bis(2-hydroxybenzoic acid)] | – | polymerization of XNTPs into full length Xpandomer copies (PEM activity) [2, 3]: enables polymerization of XNTPs into full length Xpandomer copies of the 100mer template in a manner comparable to that of compound 10; polymerization of XNTPs into lengthy Xpandomer copies, combination of PEMs ([2]; combination of 2 Mm compound 14 and 0.1 Mm or 0.3 Mm compound 17, HIV2-derived 100mer template, FIG. 13 lanes 7-9): also enabled polymerization of XNTPs into lengthy Xpandomer copies of the 100mer template |
| O=C(O)c1ccc(-n2cc(-c3cc(C(=O)N4CCOCC4)cc(-c4cn(-c5ccc(C(=O)O)c(O)c5)nn4)n3)nn2)cc1O [Compound 51, 4,4′-((4-(morpholine-4-carbonyl)pyridine-2,6-diyl)bis(1H-1,2,3-triazole-4,1-diyl))bis(2-hydroxybenzoic acid)] | display PEM activity on an RNA template | – |
| CCNC(=O)c1cc(-c2cn(-c3ccc(C(=O)NCC(=O)O)c(C(F)(F)F)c3)nn2)nc(-c2cn(-c3ccc(C(=O)NCC(=O)O)c(C(F)(F)F)c3)nn2)c1 [Compound 110, 2,2′-((4,4′-((4-(ethylcarbamoyl)pyridine-2,6-diyl)bis(1H-1,2,3-triazole-4,1-diyl))bis(2-(trifluoromethyl)benzoyl))bis(azanediyl))diacetic acid] | display PEM activity on an RNA template | – |
| CCNC(=O)c1cc(-c2cn(-c3ccc(C(=O)O)c(F)c3)nn2)nc(-c2cn(-c3ccc(C(=O)O)c(F)c3)nn2)c1 [Compound 76, 4,4′-((4-(ethylcarbamoyl)pyridine-2,6-diyl)bis(1H-1,2,3-triazole-4,1-diyl))bis(2-fluorobenzoic acid)] | display PEM activity on an RNA template | – |
| CCN(CC)C(=O)c1cc(-c2cn(-c3ccc(C(=O)O)c(O)c3)nn2)nc(-c2cn(-c3ccc(C(=O)O)c(O)c3)nn2)c1 [Compound 49, 4,4′-((4-(diethylcarbamoyl)pyridine-2,6-diyl)bis(1H-1,2,3-triazole-4,1-diyl))bis(2-hydroxybenzoic acid)] | display PEM activity on an RNA template | – |
| CCNC(=O)c1cc(-c2cn(-c3ccc(C(=O)O)c([N+](=O)[O-])c3)nn2)nc(-c2cn(-c3ccc(C(=O)O)c([N+](=O)[O-])c3)nn2)c1 [Compound 106, 4,4′-((4-(ethylcarbamoyl)pyridine-2,6-diyl)bis(1H-1,2,3-triazole-4,1-diyl))bis(2-nitrobenzoic acid)] | display PEM activity on an RNA template | – |
| CCNC(=O)c1cc(-c2cn(-c3ccc(C(=O)O)c(C(F)(F)F)c3)nn2)nc(-c2cn(-c3ccc(C(=O)O)c(C(F)(F)F)c3)nn2)c1 [Compound 73, 4,4′-((4-(ethylcarbamoyl)pyridine-2,6-diyl)bis(1H-1,2,3-triazole-4,1-diyl))bis(2-(trifluoromethyl)benzoic acid)] | display PEM activity on an RNA template | – |
| CCNC(=O)c1cc(-c2cn(-c3cc(C(=O)O)cc(C(F)(F)F)c3)nn2)nc(-c2cn(-c3cc(C(=O)O)cc(C(F)(F)F)c3)nn2)c1 [Compound 93, 5,5′-((4-(ethylcarbamoyl)pyridine-2,6-diyl)bis(1H-1,2,3-triazole-4,1-diyl))bis(3-(trifluoromethyl)benzoic acid)] | display PEM activity on an RNA template | – |
| CCNC(=O)c1cc(-n2cc(-c3ccc(C(=O)O)c(C(F)(F)F)c3)nn2)cc(-n2cc(-c3ccc(C(=O)O)c(C(F)(F)F)c3)nn2)c1 [Compound 116, 4,4′-((5-(ethylcarbamoyl)-1,3-phenylene)bis(1H-1,2,3-triazole-1,4-diyl))bis(2-(trifluoromethyl)benzoic acid)] | display PEM activity on an RNA template | – |
